Data set [1] relates to A2780 ovarian cancer cell line. Description: Cytotoxicity, PrestoBlue assay, A2780. As to conditions: 72 h, PrestoBlue, read-out: IC50 (µM) after 72 h, A2780. The class given is cell-based, human. The procedure: (§1) counterpart, A2780cis, were procured from the European Collection of Cell
(§2) (ThermoFisher, USA) base medium supplemented with 10% Foetal Bovine
(§3) Serum (FBS; Sigma, Germany) and 1% of Penicillin-Streptomycin
(§4) (ThermoFisher, USA). Additionally, A2780cis cell line was cultured in the
(§5) drug. The human embryonic kidney cell line, HEK293T, and HeLa cell line were
(§6) obtained from American Type Culture Collection (ATCC, USA) and were cultured
(§7) in DMEM GlutaMAX (ThermoFisher, USA) base medium, supplemented with
(§8) 10% FBS and 1% of Penicillin-Streptomycin. All cell lines were maintained in a
(§9) humidified incubator at37 °C and 5% CO2.
(§10) 4.2. Cytotoxicity studies
(§11) cells/mL (A2780cis and HEK293T) was dispensed into flat bottom 96-well plates
(§12) and allowed to attach overnight. On the next day, 10 mM stock solutions of the
(§13) tested compounds were prepared in DMSO, then diluted with media to the final
(§14) concentration range of 0 - 100 µM and applied to the cells; 0.1% DMSO final
(§15) solution and 10 µM final concentration gambogic acid were used as negative and
(§16) positive controls, respectively. After 72 h incubation in a humidified incubator
(§17) under 5% CO2 at 37 °C, PrestoBlue™ cell viability reagent (Cat. No. A13262,
(§18) Invitrogen, USA) was added to cultures at a 1:10 ratio according to the
(§19) manufacturer instructions, and samples were incubated for 1.5 h. Fluorescence
(§20) at 560/590 nm was detected with Tecan Infinite 500 microplate reader (Tecan,
(§21) Switzerland). Three wells were assessed for each concentration of the tested
(§22) compounds and three independent experiments were performed. Non-linear
(§23) regression and IC50 value calculation were performed in GraphPad Prism 9 using
(§24) the build-in function “Dose response- Inhibition”.

Data set [2] deals with A2780cis cells with acquired resistance to cisplatin. The experiment in a line: Cytotoxicity, PrestoBlue assay, A2780cis. Type of data set: cell-based, human. Conditions: for IC50: 72 h, PrestoBlue, read-out: IC50 (µM) after 72 h, A2780cis; for Resistance index (RI): RI = IC50 A2780cis/IC50 A2780. On the procedure:
as §1, §2, §3, §4, §5, §6, §7, §8, §9, §10, §11, §12, §13, §14, §15, §16, §17, §18, §19, §20, §21, §22, §23, §24

Data set [3] concerns non-cancerous human embryonic kidney HEK293T cells. The experiment in a line: Cytotoxicity, PrestoBlue assay, HEK293T. Type of data set: cell-based. Conditions: 72 h, PrestoBlue, read-out: IC50 (µM) after 72 h, HEK293T. On the procedure: as §1, §2, §3, §4, §5, §6, §7, §8, §9, §10, §11, §12, §13, §14, §15, §16, §17, §18, §19, §20, §21, §22, §23, §24
Data set [4] concerns ovarian cancer cell lines (A2780 and A2780cis). The experiment in a line: Cytotoxicity stated jointly for both ovarian cancer cell lines. On the procedure:
as §1, §2, §3, §4, §5, §6, §7, §8, §9, §10, §11, §12, §13, §14, §15, §16, §17, §18, §19, §20, §21, §22, §23, §24

Data set [5] is described as follows: n-octanol/water partition coefficient. The class given is physicochemical. An excerpt: Resistance index (RI) ^a, and n-octanol/water partition coefficients (logPOW) | column: logPOW
For data set [6], the system named is DNA synthesis in HeLa cells. The experiment in a line: EdU incorporation assay, fluorescence cell microscopy. The class given is cell-based. As to conditions: 3 µM, 24 h, gemcitabine = 100%, DMSO = 0%. An excerpt:
The inhibitory effect of Pt1^Y and Pt2^Y (Y = NR, O, S) on DNA synthesis during cell proliferation was quantified in cellulo using an EdU incorporation assay and fluorescence cell microscopy (Fig. 6 and SI Fig. 12).[70] Gemcitabine, a clinically-approved DNA synthesis inhibitor,[71] was used as a positive control (100% inhibition), and the cells treated with an equivalent amount of DMSO served as a negative control (“untreated”, 0% inhibition). Cisplatin and transplatin were included as references. DNA synthesis was blocked to various degrees in the cells treated with the different platinum complexes. […]
4.4. EdU incorporation assay
EdU incorporation assay was performed using a Click-iT EdU Imaging kit
(C10086, Thermo Fisher, Switzerland) according to the manufacturer’s protocol.
HeLa cells were seeded into a black 96-well PhenoPlate with optically clear flat-bottom (Revity 6055302) at a concentration of 4000 cells per well. After 24 h, the cells were treated with the tested compounds Pt1Y and Pt2Y (Y = NR, O, S), […]
of the compounds in HeLA cells). Gemcitabine (1 and 3 µM) and an equal volume of DMSO were used as positive and negative control, respectively. Each condition was tested in triplicate. The assay was performed after an incubation of 24 h. The cells were additionally stained by Hoechst 33342 diluted in PBS with 3% BSA. The fluorescent signal was detected with the widefield INCell 2200 microscope (GE health care, USA) using a 10X/0.45 objective. The DAPI channel was used for Hoechst 33342 emitting blue (λex = 390/ 18 nm, λem = 432.5/ 48 nm), and the FITC channel for Edu-AlexaFluor-488 (λex = 475/ 28 nm, λem = 511.5/23 nm) emitting in green. For each well, 9 fields of view were captured. Image analysis was performed using CellProfiler (v4.2.5), CellProfiler Analyst (v3.0.4) and FIJI (v1.54k) software. Images were first pre -processed (correction for flat - field illumination using a Gaussian-based smoothing filter and rescaled for segmentation). All cells were segmented using the minimum cross -entropy thresholding method on an intermediate image composed of the addition of 2 channels imaged. For all cells, featur es of size, shape, and fluorescence intensities were extracted. Cells were then either classified directly as live or dead based on a combination of their size and EdU staining intensity or classified automatically as live or dead using a machine learning -based random forest classifier model in a multiparametric approach. The readout used is the average percentage of live or dead cells in each condition and the values are normalised to gemcitabine at 3 μM and DMSO (untreated) with the corresponding volume at […]

Data set [7] concerns A2780, A2780cis and HEK293T cell lines. The experiment in a line: Cytotoxicity stated jointly for all three cell lines. The class given is cell-based, human. Conditions: HEK293T together, 72 h. The procedure: as §1, §2, §3, §4, §5, §6, §7, §8, §9, §10, §11, §12, §13, §14, §15, §16
under 5% CO2 at 37 °C, PrestoBlue™ cell viability reagent (Cat. No. A13262, […]
as §19, §20
Switzerland). Three wells were assessed for each concentration of the tested […]

For data set [8] the following is noted: n-octanol/water; cited from earlier work.
Details of data set [9]: method as in PMID 21082862. As to conditions: cell line not stated; read-out: Cytotoxicity reported in the literature; cited from earlier work.

The values below come from article PMC12794336, “Unconventional chalcogen-containing azolylidene metal complexes as potential anticancer therapeutics” (Chemical Science, 2025).

Where two headings read alike, the source gives them in different places.

Consider `[I][Pt-2]([I])([c]1occ[n+]1Cc1ccccc1)[n+]1ccccc1` [Pt2^O], for which the IC50 in [1] (listed as Pt2^S) was found to be 6 ± 1 µM; in data set [1], 4 ± 1 µM; in data set [2] (listed as Pt2^S), 12 ± 3 µM; in data set [2], 5 ± 2 µM; in data set [3] (listed as Pt2^S), 9 ± 2 µM; in data set [3], 6 ± 2 µM. Also, the IC50 in [4] (read-out: Cytotoxicity (IC50) in the ovarian cancer cell lines, A2780 and A2780cis together, approximate text values, 72 h) is ~5 µM; in [4] (read-out: Cytotoxicity (IC50) in the ovarian cancer cell lines, A2780 and A2780cis together, approximate text values, 72 h, listed as Pt2^S) it was ~8 µM. Also, the “Resistance index (RI)” value came out at 1.5 in data set [2] and 2.2 in data set [2] (listed as Pt2^S). Also, the logPOW turned out to be 1.6 ± 0.2 in [5] (n-octanol/water) and 1.8 ± 1.0 in data set [5] (n-octanol/water, listed as Pt2^S). The “Degree of inhibition of DNA synthesis” value amounted to 37% in [6] and 24% in data set [6] (listed as Pt2^S).
`Cc1ccc(C(C)C)cc1.[Cl][Ru]([Cl])[PH]12CN3CN(CN(C3)C1)C2` [RAPTA-C, reference compound]: the IC50 in [1], in data set [2], in data set [3] and in [7] was > 100 µM in each case. In [8], the logPOW is −1.8 (ref. [64]).
On to `CCn1[c]([Au-][Cl])[n+](CC)c2ccccc21` [same complex bearing a chlorido ligand], for which, in data set [9], the IC50 is 6.4 ± 2 µM.
On to `Cn1cc[n+](C)[c]1[Pt-2]([I])([I])[n+]1ccccc1` [Pt1^NMe], for which the IC50 in [1] is 2.9 ± 0.2 µM; in data set [2] it was 2.8 ± 0.7 µM; in [3], 4 ± 1 µM; in [4] it was ~3 µM. Besides, the “Resistance index (RI)” value in [2] was found to be 1.0. The logPOW in data set [5] is 1.3 ± 0.6. Moreover, the “Degree of inhibition of DNA synthesis” value in [6] was determined as 29%.
